Key:
[1] = system: mice; experiment: Kidney uptake of 111In- and 88Y-labeled F(ab)2 fragments of MN-14; format: in vivo; details: up to 24 h p.i.; no lysine
Text: (§1) After cervical dislocation, the animals were dissected.

[2] = system: GW39 colonic cancer xenograft bearing nude mice; experiment: Biodistribution of anti-CEA 99mTc-Fab′ NP-4 under L-lysine / poly-L-lysine treatment; format: in vivo; details: poly-L-lys 0.15 mg/g i.v. at −30′
Text: as §1

[3] = system: mice; experiment: Biodistribution of 99mTc-Fab′ NP-4 under poly-L-lysine of different molecular weight and lysine/poly-lysine mixtures; details: for Blood level of 99mTc-Fab′ NP-4 / Kidney uptake of 99mTc-Fab′ NP-4 / Kidney uptake, % control / Liver uptake of 99mTc-Fab′ NP-4 / Lungs uptake of 99mTc-Fab′ NP-4 / Spleen uptake of 99mTc-Fab′ NP-4: 4 h p.i.
Description: Female BALB/c mice, 19 to 22 g of weight, 4 to 5 weeks of age (Charles River Laboratories, Boston, Mass.) were used as non-tumor-bearing animals. For a human tumor xenograft model, the human colon carcinoma cell line GW39 (Primus et al supra) was grown subcutaneously in 5- to 6-week-old female athymic mice (Harlan, Madison, Wis.). Animals were injected intravenously into the tail vein with approximately 5-10 μg of antibody fragment protein (i.e., 25-40 μCi of ^99mTc, ^188Re, and ^111In, resp.; 4 μCi of ^88Y, and 10 μCi of ^125I, respectively).
The mice were sacrificed after 4 h and 24 h for ^99mTc-labeled antibodies, and after 4, 24, 72, 96 and 168 h for ^125I, ^111In, ^88Y and ^188Re-labeled antibodies. Mice were sacrificed by anesthesia with sodium pentobarbital and bled by cardiac puncture. After cervical dislocation, the animals were dissected. Radioactivity in the tumors and tissues (liver, spleen, kidney, lung, intestine, blood and bone) was determined by gamma scintillation counting using an injection standard to correct for physical decay.
L-lysine, D-lysine and L-arginine monohydrochloride salts (Sigma, St. Louis, Mo.) were dissolved in phosphate-buffered saline (PBS) at a concentration of 160 mg/ml. L-lysine ethyl ester dihydrochloride was dissolved in PBS to yield a concentration of 80 mg/ml. Poly-L-lysine (1-4 kDa and 15-30 kDa) were used as hydrochloride salts at concentration of 25 mg/ml and 10 mg/ml, respectively.
Animals were injected with the lysine and/or poly-lysine solutions intraperitoneally in amounts and at frequencies as shown below. Human patients were infused intravenously over a three-hour period with 1.5 liters of a commercially available amino acid solution starting 15 min before the antibody injection. The data of a total of 77 patients examined with ^99mTc-labeled anti-CEA Fab′ (NP-4: n=19; F023C5: n=58) were taken as controls (infused with the same volume of 0.9% saline instead of the amino acid solution).
To attempt to reduce the necessity of frequent injections of the kidney uptake reducing agent, polymeric substances of higher molecular weight were investigated.
To reach maximal effectiveness with as few injections as possible, combinations of lysine and poly-lysine were tested.

[4] = 1-4 kD, 100 μg/g once 30′ before antibody
[5] = 1-4 kD, 200 μg/g once 30′ before antibody
[6] = 1-4 kD, 300 μg/g once 30′ before antibody
[7] = 15-30 kD, 10 μg/g once 30′ before antibody
[8] = 15-30 kD, 20 μg/g once 30′ before antibody

Y labeled F(ab)2: 88Y-Bz-DTPA-labeled F(ab)2 fragment of the anti-CEA antibody MN-14
highest value of kidney uptake [1]: about 43 % of the injected dose/g

Poly-L-lysine [poly-L-lysine (1-4 kD)]
Blood level of 99mTc-Fab′ NP-4 ([2]; 4 h p.i.): 1.7 ± 0.2
GW39 uptake of 99mTc-Fab′ NP-4 ([2]; 4 h p.i.): 3.0 ± 1.0
Kidney uptake of 99mTc-Fab′ NP-4 ([2]; 4 h p.i.): 30.8 ± 6.0
Kidney uptake, % of contr. ([2]; 4 h p.i.): 52.2 % of contr.
Liver uptake of 99mTc-Fab′ NP-4 ([2]; 4 h p.i.): 1.5 ± 0.2
Lung uptake of 99mTc-Fab′ NP-4 ([2]; 4 h p.i.): 3.1 ± 1.2
Spleen uptake of 99mTc-Fab′ NP-4 ([2]; 4 h p.i.): 1.0 ± 0.1
Blood level of 99mTc-Fab′ NP-4 ([2]; 24 h p.i.): 0.3 ± 0.0
GW39 uptake of 99mTc-Fab′ NP-4 ([2]; 24 h p.i.): 2.2 ± 0.3
Kidney uptake of 99mTc-Fab′ NP-4 ([2]; 24 h p.i.): 25.3 ± 5.7
Kidney uptake, % of contr. ([2]; 24 h p.i.): 94.7 % of contr.
Liver uptake of 99mTc-Fab′ NP-4 ([2]; 24 h p.i.): 0.9 ± 0.1
Lung uptake of 99mTc-Fab′ NP-4 ([2]; 24 h p.i.): 0.8 ± 0.6
Spleen uptake of 99mTc-Fab′ NP-4 ([2]; 24 h p.i.): 0.7 ± 0.1
Blood level of 99mTc-Fab′ NP-4 [3, 4]: 3.8 ± 0.1
Kidney uptake of 99mTc-Fab′ NP-4 [3, 4]: 95.5 ± 4.3
Kidney uptake, % control [3, 4]: 74.8 % control
Liver uptake of 99mTc-Fab′ NP-4 [3, 4]: 3.0 ± 0.2
Lungs uptake of 99mTc-Fab′ NP-4 [3, 4]: 5.9 ± 3.1
Spleen uptake of 99mTc-Fab′ NP-4 [3, 4]: 3.0 ± 0.4
Blood level of 99mTc-Fab′ NP-4 [3, 5]: 4.4 ± 0.5
Kidney uptake of 99mTc-Fab′ NP-4 [3, 5]: 80.5 ± 6.9
Kidney uptake, % control [3, 5]: 63.0 % control
Liver uptake of 99mTc-Fab′ NP-4 [3, 5]: 3.0 ± 0.4
Lungs uptake of 99mTc-Fab′ NP-4 [3, 5]: 3.9 ± 2.6
Spleen uptake of 99mTc-Fab′ NP-4 [3, 5]: 2.7 ± 0.4
Blood level of 99mTc-Fab′ NP-4 [3, 6]: 5.3 ± 1.4
Kidney uptake of 99mTc-Fab′ NP-4 [3, 6]: 67.9 ± 7.5
Kidney uptake, % control [3, 6]: 53.2 % control
Liver uptake of 99mTc-Fab′ NP-4 [3, 6]: 3.5 ± 0.8
Lungs uptake of 99mTc-Fab′ NP-4 [3, 6]: 5.6 ± 1.0
Spleen uptake of 99mTc-Fab′ NP-4 [3, 6]: 3.5 ± 0.4
kidney uptake reduction compared with the monomer ([3]; single i.p. injection): significantly lower doses than the monomer

Poly-L-lysine [poly-L-lysine (15-30 kD)]
kidney uptake reduction ([3]; 1×20 μg/g): 50%
Blood level of 99mTc-Fab′ NP-4 [3, 7]: 4.7 ± 0.3
Kidney uptake of 99mTc-Fab′ NP-4 [3, 7]: 73.9 ± 7.2
Kidney uptake, % control [3, 7]: 57.8 % control
Liver uptake of 99mTc-Fab′ NP-4 [3, 7]: 7.3 ± 3.7
Lungs uptake of 99mTc-Fab′ NP-4 [3, 7]: 6.8 ± 4.3
Spleen uptake of 99mTc-Fab′ NP-4 [3, 7]: 3.7 ± 0.4
Blood level of 99mTc-Fab′ NP-4 [3, 8]: 4.7 ± 0.2
Kidney uptake of 99mTc-Fab′ NP-4 [3, 8]: 55.7 ± 6.5
Kidney uptake, % control [3, 8]: 43.6 % control
Liver uptake of 99mTc-Fab′ NP-4 [3, 8]: 4.6 ± 0.7
Lungs uptake of 99mTc-Fab′ NP-4 [3, 8]: 7.9 ± 3.2
Spleen uptake of 99mTc-Fab′ NP-4 [3, 8]: 3.8 ± 0.3
